Measured values taken from ChEMBL document CHEMBL1201862, “PubChem BioAssay data set” (2004).
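The compound was tested at five concentrations on cells cultured in 96-well plates, with a 48-hour exposure period. Here, GI50 denotes the concentration required for 50% inhibition of growth.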 Active and inactive are the calls of the source. No stated cut-off is given here; in the data, active = GI50 up to about 1.1 µM and inactive = higher.

Columns and labels:
Assay in all cases: NCI-60 cell line screen, 48 h
HT-29 = test system: HT-29
A498 = test system: A498
DU-145 = test system: DU-145
HCC 2998 = test system: HCC 2998
UACC-257 = test system: UACC-257
NCI-H226 = test system: NCI-H226
Malme-3M = test system: Malme-3M
PC-3 = test system: PC-3
MDA-MB-435 = test system: MDA-MB-435
SN12C = test system: SN12C
SW-620 = test system: SW-620
NCI-H522 = test system: NCI-H522
MCF7 = test system: MCF7
KM12 = test system: KM12
TK-10 = test system: TK-10
HCT-15 = test system: HCT-15
SNB-75 = test system: SNB-75
LOX IMVI = test system: LOX IMVI
MDA-MB-231 = test system: MDA-MB-231
SK-MEL-5 = test system: SK-MEL-5

Structure (SMILES)	GI50 (HT-29)	GI50 (A498)	GI50 (DU-145)	GI50 (HCC 2998)	GI50 (UACC-257)	GI50 (NCI-H226)	GI50 (Malme-3M)	GI50 (PC-3)	GI50 (MDA-MB-435)	GI50 (SN12C)	GI50 (SW-620)	GI50 (NCI-H522)	GI50 (MCF7)	GI50 (KM12)	GI50 (TK-10)	GI50 (HCT-15)	GI50 (SNB-75)	GI50 (LOX IMVI)	GI50 (MDA-MB-231)	GI50 (SK-MEL-5)
c1ccc2c(c1)Cn1c-2nc2ccccc21	> 100 µM (inactive)	> 100 µM (inactive)	23.9 µM (inactive)	> 100 µM (inactive)	> 100 µM (inactive)	61.7 µM (inactive)	76 µM (inactive)	> 100 µM (inactive)	> 100 µM (inactive)	> 100 µM (inactive)	> 100 µM (inactive)	43.1 µM (inactive)	> 100 µM (inactive)	> 100 µM (inactive)	> 100 µM (inactive)	94.4 µM	< 0.01 µM (active)	> 100 µM (inactive)	> 100 µM (inactive)	42.4 µM (inactive)
C=C1C(=O)O[C@@H]2C[C@]3(C)CC[C@]4(C)[C@H](CC[C@@H]5[C@@]6(C)CCC(=O)C(C)(C)[C@@H]6CC[C@]54C)[C@H]3[C@H]12 [OCHRACEOLIDE A]	20.6 µM (inactive)	21 µM (inactive)	17.9 µM (inactive)	19.2 µM (inactive)	14.6 µM (inactive)	20 µM (inactive)	15.8 µM (inactive)	14.7 µM (inactive)	11.2 µM (inactive)	17.5 µM (inactive)	11.6 µM (inactive)	7.33 µM (inactive)	4.81 µM (inactive)	19.2 µM (inactive)	16 µM (inactive)	12.5 µM	20.7 µM (inactive)	15.2 µM (inactive)	24.7 µM (inactive)	12.5 µM (inactive)
O=C1c2ccccc2C(=O)c2c1ccc1c2OCO1	> 100 µM (inactive)	> 100 µM (inactive)	> 100 µM (inactive)	> 100 µM (inactive)	> 100 µM (inactive)	58.7 µM (inactive)	> 100 µM (inactive)	> 100 µM (inactive)	> 100 µM (inactive)	> 100 µM (inactive)	> 100 µM (inactive)	> 100 µM (inactive)	> 100 µM (inactive)	> 100 µM (inactive)	> 100 µM (inactive)	> 100 µM	23.1 µM (inactive)	> 100 µM (inactive)	> 100 µM (inactive)	> 100 µM (inactive)
O=C1NN(c2ccccc2)C(=O)C2C3c4ccccc4C(c4ccccc43)C12 (configuration not stated)	32.7 µM (inactive)	32.2 µM (inactive)	> 100 µM (inactive)	6.64 µM (inactive)	27.6 µM (inactive)	> 100 µM (inactive)	85.1 µM (inactive)	24.3 µM (inactive)	> 100 µM (inactive)	77.1 µM (inactive)	> 100 µM (inactive)	49.1 µM (inactive)	44.2 µM (inactive)	> 100 µM (inactive)	> 100 µM (inactive)	89.1 µM	26.1 µM (inactive)	> 100 µM (inactive)	41 µM (inactive)	> 100 µM (inactive)
Cc1nn(-c2ccccc2)c2nc3c(c(C)nn3-c3ccccc3)c(-c3ccccc3Br)c12	> 100 µM (inactive)	> 100 µM (inactive)	> 100 µM (inactive)	> 100 µM (inactive)	> 100 µM (inactive)	> 100 µM (inactive)	> 100 µM (inactive)	> 100 µM (inactive)	> 100 µM (inactive)	> 100 µM (inactive)	> 100 µM (inactive)	> 100 µM (inactive)	> 100 µM (inactive)	> 100 µM (inactive)	> 100 µM (inactive)	> 100 µM	> 100 µM (inactive)	> 100 µM (inactive)	> 100 µM (inactive)	> 100 µM (inactive)
Nn1c(CCCCCCCCc2nnc(COc3ccc(Cl)cc3)n2N)nnc1COc1ccc(Cl)cc1	> 100 µM (inactive)	95.1 µM (inactive)	> 100 µM (inactive)	> 100 µM (inactive)	> 100 µM (inactive)	> 100 µM (inactive)	> 100 µM (inactive)	68.2 µM (inactive)	> 100 µM (inactive)	> 100 µM (inactive)	> 100 µM (inactive)	81.1 µM (inactive)	> 100 µM (inactive)	> 100 µM (inactive)	78 µM (inactive)	> 100 µM	> 100 µM (inactive)	–	> 100 µM (inactive)	> 100 µM (inactive)
O=C1C(=O)N(c2cccc(C(F)(F)F)c2)C(=O)C(=O)C1c1nc2ccccc2s1	78.3 µM (inactive)	> 100 µM (inactive)	> 100 µM (inactive)	99.5 µM (inactive)	> 92 µM (inactive)	> 81.8 µM (inactive)	68.1 µM (inactive)	> 100 µM (inactive)	> 100 µM (inactive)	> 93.3 µM (inactive)	61.1 µM (inactive)	> 100 µM (inactive)	45.1 µM (inactive)	> 64 µM (inactive)	> 90.8 µM (inactive)	39.6 µM	> 49.5 µM (inactive)	68.9 µM (inactive)	73.6 µM (inactive)	> 100 µM (inactive)
COC(=O)c1cc2c(cc1CC1Cc3cc4c(cc3C1)CCC4)CCC2	36.3 µM (inactive)	> 100 µM (inactive)	84.7 µM (inactive)	22.6 µM (inactive)	25.8 µM (inactive)	> 100 µM (inactive)	86.5 µM (inactive)	74.3 µM (inactive)	42.6 µM (inactive)	79.1 µM (inactive)	> 100 µM (inactive)	25.7 µM (inactive)	25.4 µM (inactive)	68.7 µM (inactive)	> 100 µM (inactive)	59.2 µM	40.1 µM (inactive)	24.3 µM (inactive)	77.3 µM (inactive)	52.6 µM (inactive)
COc1cc(CSc2ccc(O)cc2)cc(O)c1O	22.2 µM (inactive)	> 100 µM (inactive)	44.5 µM (inactive)	29.2 µM (inactive)	34 µM (inactive)	23.4 µM (inactive)	37.6 µM (inactive)	49.3 µM (inactive)	17.2 µM (inactive)	25.2 µM (inactive)	38.5 µM (inactive)	16.1 µM (inactive)	17.6 µM (inactive)	25.9 µM (inactive)	53.1 µM (inactive)	18.7 µM	32.1 µM (inactive)	36.2 µM (inactive)	25.4 µM (inactive)	> 10 µM (inactive)
N#CC1=C(N)OC(c2ccc([N+](=O)[O-])cc2)C1(C#N)C#N (configuration not stated)	9.14 µM (inactive)	14.4 µM (inactive)	17.9 µM (inactive)	9.46 µM (inactive)	13.1 µM (inactive)	18.3 µM (inactive)	10.2 µM (inactive)	17.1 µM (inactive)	17 µM (inactive)	14.5 µM (inactive)	13.2 µM (inactive)	6.62 µM (inactive)	15.6 µM (inactive)	> 33.7 µM (inactive)	13.2 µM (inactive)	10.5 µM	20.6 µM (inactive)	8.49 µM (inactive)	16.4 µM (inactive)	9.48 µM (inactive)
COC(=O)CCc1ccc2c(c1)CC1(C2)Cc2ccc3c(c2C1)CCC3 (configuration not stated)	70.3 µM (inactive)	> 100 µM (inactive)	70 µM (inactive)	52.4 µM (inactive)	> 100 µM (inactive)	> 100 µM (inactive)	> 100 µM (inactive)	> 100 µM (inactive)	38.1 µM (inactive)	80 µM (inactive)	> 100 µM (inactive)	59.2 µM (inactive)	59.6 µM (inactive)	39.3 µM (inactive)	> 100 µM (inactive)	59.2 µM	> 100 µM (inactive)	> 100 µM (inactive)	89.1 µM (inactive)	34.4 µM (inactive)
CCOC(=O)c1c(SCCN2CCCC2)n(-c2ccccc2)c(=S)n(-c2ccccc2)c1=O	4.89 µM (inactive)	10.4 µM (inactive)	1.68 µM (inactive)	1.87 µM (inactive)	1.69 µM (inactive)	16.8 µM (inactive)	1.56 µM (inactive)	1.66 µM (inactive)	2.55 µM (inactive)	1.71 µM (inactive)	2.6 µM (inactive)	1.77 µM (inactive)	1.19 µM (inactive)	15.8 µM (inactive)	1.67 µM (inactive)	2.21 µM	6.93 µM (inactive)	1.82 µM (inactive)	2.08 µM (inactive)	3.07 µM (inactive)
COc1ccc(-c2c3c(n(C4OC(CO)C(O)C(O)C4O)c(=S)c2C#N)CC(C)(C)CC3=O)cc1 (configuration not stated)	> 100 µM (inactive)	> 100 µM (inactive)	> 100 µM (inactive)	> 100 µM (inactive)	> 100 µM (inactive)	96.6 µM (inactive)	> 100 µM (inactive)	> 100 µM (inactive)	> 100 µM (inactive)	> 100 µM (inactive)	–	> 100 µM (inactive)	> 100 µM (inactive)	> 100 µM (inactive)	> 100 µM (inactive)	> 100 µM	96.6 µM (inactive)	> 100 µM (inactive)	> 100 µM (inactive)	> 100 µM (inactive)
O=C(O)Cn1ccc(=O)c2c([N+](=O)[O-])cccc21	> 100 µM (inactive)	> 100 µM (inactive)	> 100 µM (inactive)	> 100 µM (inactive)	> 100 µM (inactive)	> 100 µM (inactive)	> 100 µM (inactive)	> 100 µM (inactive)	> 100 µM (inactive)	> 100 µM (inactive)	> 100 µM (inactive)	> 100 µM (inactive)	> 100 µM (inactive)	> 100 µM (inactive)	> 100 µM (inactive)	> 100 µM	> 100 µM (inactive)	–	> 100 µM (inactive)	> 100 µM (inactive)
